{
  "source": "paper PMC7993727",
  "about": "“Discovery of a novel AR/HDAC6 dual inhibitor for prostate cancer treatment” (Aging (Albany NY), 2021)",
  "key": {"TMPRSS2": {"system": "TMPRSS2", "experiment": "TMPRSS2 mRNA (qRT-PCR) and protein (Western blot) expression in VCaP cells", "format": "cell-based", "conditions": "10 nM DHT, 24 hours", "procedure": "(§1) RNA expression level was analyzed by qRT-PCR and protein expression level was analyzed by Western blot. […] (I) Representative immunofluorescence microscopic images of VCaP cells for checking the subcellular localization of AR.\nThe RNA of VCaP cells was extracted using a Simply P Total RNA Extraction kit (Bioer technology) and cDNA was synthesized using a SMARTer PCR cDNA Synthesis Kit (Clontech). PSA and β-actin primers were synthesized by Sangon Biotech according to previous literature. Real-time PCR was performed using the PowerUp SYBR™ Green kit (ThermoFisher). The PCR program was run on a LightCycler 480II (Roche) and set as follows: 2 minutes at 95° C followed by 40 cycles of 30 seconds at 95° C, 15 seconds at 60° C and 30 seconds at 72° C. Data were quantified using the 2-ΔΔCt method based on the Ct values of PSA and β-actin from two parallel experiments performed in triplicate.\nThe whole-cell extracts were prepared in lysis buffer with a protease inhibitor cocktail (Bimake), while the xenograft tissue extracts were prepared in 0.5% Nonidet P 40 Substitute solution (Biosharp) with cocktail protease inhibitor (Bimake). Each sample containing 30 μg of total protein was loaded onto 10% SDS-PAGE and electrotransferred onto polyvinylidene fluoride membranes. […]"}, "HDAC4": {"molecular_target": "T1, HDAC4 (Homo sapiens, UniProt P56524)", "T1 construct": "purchased BPS Bioscience", "T1 sequence (P56524 whole entry)": "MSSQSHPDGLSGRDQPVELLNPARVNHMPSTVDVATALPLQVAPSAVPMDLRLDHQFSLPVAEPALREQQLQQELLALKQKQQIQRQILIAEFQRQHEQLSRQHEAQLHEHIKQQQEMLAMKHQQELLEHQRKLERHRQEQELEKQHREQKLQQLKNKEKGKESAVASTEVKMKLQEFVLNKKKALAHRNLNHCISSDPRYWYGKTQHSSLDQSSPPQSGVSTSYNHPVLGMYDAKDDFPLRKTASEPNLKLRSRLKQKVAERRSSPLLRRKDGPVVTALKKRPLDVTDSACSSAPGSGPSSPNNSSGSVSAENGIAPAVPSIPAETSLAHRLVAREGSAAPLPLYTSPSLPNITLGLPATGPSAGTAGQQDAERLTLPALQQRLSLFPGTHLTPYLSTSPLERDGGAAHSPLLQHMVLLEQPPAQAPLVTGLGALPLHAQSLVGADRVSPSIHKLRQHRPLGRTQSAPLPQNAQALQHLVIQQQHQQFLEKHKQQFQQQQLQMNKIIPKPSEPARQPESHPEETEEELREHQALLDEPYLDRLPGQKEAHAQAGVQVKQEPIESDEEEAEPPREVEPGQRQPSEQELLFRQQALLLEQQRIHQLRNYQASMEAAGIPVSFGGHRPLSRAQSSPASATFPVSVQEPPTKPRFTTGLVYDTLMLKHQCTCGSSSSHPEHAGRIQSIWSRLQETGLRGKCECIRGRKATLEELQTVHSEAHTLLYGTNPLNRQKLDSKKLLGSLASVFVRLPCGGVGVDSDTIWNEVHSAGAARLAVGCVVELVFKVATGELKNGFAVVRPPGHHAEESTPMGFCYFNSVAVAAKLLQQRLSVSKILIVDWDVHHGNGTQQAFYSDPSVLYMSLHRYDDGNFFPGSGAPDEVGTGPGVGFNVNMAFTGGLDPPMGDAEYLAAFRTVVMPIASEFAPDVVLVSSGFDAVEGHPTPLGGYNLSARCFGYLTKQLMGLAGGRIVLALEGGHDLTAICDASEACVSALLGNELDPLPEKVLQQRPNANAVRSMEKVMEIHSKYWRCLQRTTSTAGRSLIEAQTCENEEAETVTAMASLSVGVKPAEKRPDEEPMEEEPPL", "experiment": "fluorescent-based HDAC assay", "format": "biochemical", "procedure": "(§2) Commercial fluorescent assay kits were used to measure the activities of HDAC (BPS Bioscience). Briefly, the tested compounds were diluted in DMSO into a 96-well plate, and then assay buffer, HDAC, and substrate were added. The plate was incubated at 37° C for 30 minutes for enzymatic reactions, and the developer was added. After 10 minutes of incubation, the generated fluorescence was measured at an excitation of 380 nm and an emission of 460 nm."}, "HDAC1": {"molecular_target": "T2, HDAC1 (Homo sapiens, UniProt Q13547)", "T2 construct": "purchased BPS Bioscience", "T2 sequence (Q13547 whole entry)": "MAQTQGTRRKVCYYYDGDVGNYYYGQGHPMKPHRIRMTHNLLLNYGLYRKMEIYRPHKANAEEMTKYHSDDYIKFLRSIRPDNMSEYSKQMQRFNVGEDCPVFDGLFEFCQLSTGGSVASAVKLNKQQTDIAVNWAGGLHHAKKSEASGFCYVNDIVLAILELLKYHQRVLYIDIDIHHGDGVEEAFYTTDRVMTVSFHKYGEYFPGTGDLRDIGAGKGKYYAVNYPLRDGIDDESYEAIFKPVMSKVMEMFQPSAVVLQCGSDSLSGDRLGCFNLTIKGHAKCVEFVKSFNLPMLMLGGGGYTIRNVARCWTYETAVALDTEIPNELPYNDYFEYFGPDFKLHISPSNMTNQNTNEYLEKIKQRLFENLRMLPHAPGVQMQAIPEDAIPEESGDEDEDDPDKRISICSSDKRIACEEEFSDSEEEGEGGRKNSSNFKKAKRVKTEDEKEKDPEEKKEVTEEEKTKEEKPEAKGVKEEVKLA", "experiment": "fluorescent-based HDAC assay", "format": "biochemical", "procedure": "as §2"}, "HDAC3": {"molecular_target": "T3, HDAC3 (Homo sapiens, UniProt O15379)", "T3 construct": "purchased BPS Bioscience", "T3 sequence (O15379 whole entry)": "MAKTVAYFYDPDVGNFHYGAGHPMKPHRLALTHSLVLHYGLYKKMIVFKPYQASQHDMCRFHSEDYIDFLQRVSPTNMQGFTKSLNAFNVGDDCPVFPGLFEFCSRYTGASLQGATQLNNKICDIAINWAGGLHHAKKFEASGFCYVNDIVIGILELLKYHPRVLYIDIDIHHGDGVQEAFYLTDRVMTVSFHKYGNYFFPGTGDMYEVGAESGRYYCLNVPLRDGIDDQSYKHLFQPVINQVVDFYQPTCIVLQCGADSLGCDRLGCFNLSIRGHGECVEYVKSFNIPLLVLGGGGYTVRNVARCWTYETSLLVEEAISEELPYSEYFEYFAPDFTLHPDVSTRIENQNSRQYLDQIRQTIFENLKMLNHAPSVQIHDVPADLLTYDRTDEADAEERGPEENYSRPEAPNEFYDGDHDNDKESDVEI", "T3 sequence (Q9Y618 395-489 partner limits assumed)": "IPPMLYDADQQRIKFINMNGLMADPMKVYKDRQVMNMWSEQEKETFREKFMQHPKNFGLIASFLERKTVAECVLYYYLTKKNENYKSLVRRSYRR", "experiment": "fluorescent-based HDAC assay", "format": "biochemical", "procedure": "as §2"}, "AR": {"molecular_target": "T4, AR (Homo sapiens, UniProt P10275)", "T4 construct": "The VCaP cells were transfected with MMTV-LUC for 24 hours; endogenous in cells; host or cells: VCaP", "T4 sequence (P10275 1-920)": "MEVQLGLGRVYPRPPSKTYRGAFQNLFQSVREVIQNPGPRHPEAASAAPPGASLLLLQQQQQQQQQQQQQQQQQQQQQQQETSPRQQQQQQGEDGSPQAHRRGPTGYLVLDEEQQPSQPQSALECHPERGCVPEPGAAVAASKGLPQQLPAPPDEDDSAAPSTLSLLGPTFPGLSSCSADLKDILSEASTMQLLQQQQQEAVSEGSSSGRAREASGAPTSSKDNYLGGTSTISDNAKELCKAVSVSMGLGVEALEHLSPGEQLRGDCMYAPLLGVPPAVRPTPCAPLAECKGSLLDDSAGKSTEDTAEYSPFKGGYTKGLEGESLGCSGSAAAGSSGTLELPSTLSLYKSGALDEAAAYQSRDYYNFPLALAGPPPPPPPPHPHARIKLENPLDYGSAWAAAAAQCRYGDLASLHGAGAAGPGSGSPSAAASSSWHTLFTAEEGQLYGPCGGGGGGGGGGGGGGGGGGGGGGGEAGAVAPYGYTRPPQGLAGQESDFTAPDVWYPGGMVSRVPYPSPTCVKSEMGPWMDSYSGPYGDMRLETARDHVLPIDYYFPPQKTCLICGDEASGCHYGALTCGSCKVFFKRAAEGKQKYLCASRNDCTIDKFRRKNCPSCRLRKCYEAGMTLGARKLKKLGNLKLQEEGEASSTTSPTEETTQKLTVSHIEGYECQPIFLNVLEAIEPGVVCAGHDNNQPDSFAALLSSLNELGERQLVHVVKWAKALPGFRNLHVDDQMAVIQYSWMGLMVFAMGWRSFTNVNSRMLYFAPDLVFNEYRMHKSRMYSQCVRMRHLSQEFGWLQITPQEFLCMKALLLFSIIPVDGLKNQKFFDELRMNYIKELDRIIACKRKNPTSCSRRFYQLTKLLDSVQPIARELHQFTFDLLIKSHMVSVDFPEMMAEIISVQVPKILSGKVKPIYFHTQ", "format": "cell-based", "conditions": "VCaP cells, 24 hours", "procedure": "as §1\nTo evaluate the HDAC6 inhibition ability of Zeta55 in VCaP cells, the acetylation status of α-tubulin protein (a HDAC6 substrate) was assessed using western blot. […] We assessed the protein level of AR in VCaP cells.\nThe whole-cell extracts were prepared in lysis buffer with a protease inhibitor cocktail (Bimake), while the xenograft tissue extracts were prepared in 0.5% Nonidet P 40 Substitute solution (Biosharp) with cocktail protease inhibitor (Bimake). Each sample containing 30 μg of total protein was loaded onto 10% SDS-PAGE and electrotransferred onto polyvinylidene fluoride membranes. The membranes were blocked with 5% skimmed milk in PBST at room temperature for 2 hours and incubated with primary antibodies at 4° C overnight. After the membranes were washed with PBST three times, they were incubated with horseradish peroxidase-conjugated anti-rabbit or anti-mouse secondary antibody at room temperature for 1 hour. Chemiluminescent detection was performed with WesternBright ECL (Advansta). The immunoblots were visualized using the FluorChem FC3 system (ProteinSimple)."}},
  "data": [
    {"smiles": "N#Cc1ccc(N2C(=O)C3(CCC3)N(c3ccc(C(=O)NO)c(F)c3)C2=S)cc1C(F)(F)F", "note": "[Zeta55]", "values": [
      {"measurement": "DHT-induced endogenous mRNA and protein expression of TMPRSS2", "setting": "TMPRSS2", "value": "significantly suppressed"},
      {"measurement": "IC50", "setting": "HDAC4", "value": "> 20", "unit": "µM"},
      {"measurement": "IC50", "setting": "HDAC1", "value": "> 20", "unit": "µM"},
      {"measurement": "IC50", "setting": "HDAC3", "value": "> 20", "unit": "µM"},
      {"measurement": "AR protein level", "setting": "AR", "value": "decreased AR protein level in a dose-dependent manner"}
    ]}
  ]
}
